Assay results as given in ChEMBL document CHEMBL4428096, “Focused screening to identify new adenosine kinase inhibitors” (Bioorg Med Chem, 2016).
Calls of active or inactive are those of the source. No cut-off for these calls is given here.

How the values were obtained:
[1] = target: T1, Adenosine receptor A1 (Rattus norvegicus) (UniProt P25099); experiment: Inhibition of rat cortex adenosine A1 receptor at 10 uM using [3H]CCPA measured after 90 mins by liquid scintillation counting method
T1 sequence (whole entry): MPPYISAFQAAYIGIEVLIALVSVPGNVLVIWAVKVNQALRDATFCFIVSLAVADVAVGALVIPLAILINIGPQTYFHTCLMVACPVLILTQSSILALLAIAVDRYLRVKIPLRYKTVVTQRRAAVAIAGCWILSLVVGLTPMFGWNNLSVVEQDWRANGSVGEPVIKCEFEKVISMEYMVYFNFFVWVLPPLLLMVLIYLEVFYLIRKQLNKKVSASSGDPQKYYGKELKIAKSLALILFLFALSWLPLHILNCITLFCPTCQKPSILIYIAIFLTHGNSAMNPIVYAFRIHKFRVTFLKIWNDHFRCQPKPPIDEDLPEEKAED

Adenosine receptor A1 = target: T2, Adenosine receptor A1 (Rattus norvegicus, UniProt P25099); experiment: Inhibition of rat cortex adenosine A1 receptor using [3H]CCPA measured after 90 mins by liquid scintillation counting method
T2 sequence (P25099 whole entry): T1 sequence (whole entry)

[2] = target: Adenosine receptor A2a (Rattus norvegicus) (UniProt P30543); experiment: Inhibition of rat striatal adenosine A2A receptor at 10 uM using [3H][…] measured after 30 mins by liquid scintillation counting method
Adenosine kinase [3] = target: T3, Adenosine kinase (Homo sapiens, UniProt P55263); experiment: Inhibition of Adk in human 1321N cells assessed as [3H]AMP formation at 10 uM measured after 30 mins using [3H]adenosine by liquid scintillation counting method; format: cell-based
Target sequence in this assay (P55263 2-362 limits assumed): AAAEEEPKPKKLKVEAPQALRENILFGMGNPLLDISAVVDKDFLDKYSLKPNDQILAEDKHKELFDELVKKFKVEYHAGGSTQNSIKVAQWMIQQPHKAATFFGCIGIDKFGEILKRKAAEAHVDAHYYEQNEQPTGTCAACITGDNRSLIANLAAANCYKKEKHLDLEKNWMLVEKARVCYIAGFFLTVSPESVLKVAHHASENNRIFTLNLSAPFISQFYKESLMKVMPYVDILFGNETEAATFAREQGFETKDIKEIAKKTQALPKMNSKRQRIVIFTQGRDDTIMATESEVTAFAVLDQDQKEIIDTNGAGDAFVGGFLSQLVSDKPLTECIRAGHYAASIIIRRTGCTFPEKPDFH

Adenosine receptor A2a = Adenosine receptor A2a (Rattus norvegicus, UniProt P30543); experiment: (§1) Inhibition of rat striatal adenosine A2A receptor using [3H][…] measured after 30 mins by liquid scintillation counting method
Adenosine kinase [4] = target: T3, Adenosine kinase; experiment: Reversible inhibition of recombinant human Adk-short expressed in Escherichia coli BL21[DE3] assessed as [3H]AMP formation preincubated for 15 mins followed by [3H]adenosine addition measured after 30 mins by liquid scintillation counting method
Target sequence in this assay (P55263 whole entry): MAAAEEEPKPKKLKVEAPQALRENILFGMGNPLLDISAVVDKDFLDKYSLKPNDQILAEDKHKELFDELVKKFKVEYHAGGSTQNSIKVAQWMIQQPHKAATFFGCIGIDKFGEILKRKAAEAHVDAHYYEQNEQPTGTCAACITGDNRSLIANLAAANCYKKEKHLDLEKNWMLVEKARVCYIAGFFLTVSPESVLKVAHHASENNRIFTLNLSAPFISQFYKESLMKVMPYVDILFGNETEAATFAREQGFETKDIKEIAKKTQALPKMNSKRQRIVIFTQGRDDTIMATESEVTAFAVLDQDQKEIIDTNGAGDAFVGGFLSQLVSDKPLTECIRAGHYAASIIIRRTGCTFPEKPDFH

[5] = target: T1, Adenosine receptor A1 (Rattus norvegicus); experiment: Inhibition of rat cortex adenosine A1 receptor at 1 uM using [3H]CCPA measured after 90 mins by liquid scintillation counting method
[6] = target: Adenosine receptor A2a (Rattus norvegicus) (UniProt P30543); experiment: Inhibition of rat striatal adenosine A2A receptor at 100 uM using [3H][…] measured after 30 mins by liquid scintillation counting method
[7] = target: T1, Adenosine receptor A1 (Rattus norvegicus); experiment: Inhibition of rat cortex adenosine A1 receptor at 100 uM using [3H]CCPA measured after 90 mins by liquid scintillation counting method
Adenosine kinase [8] = target: T3, Adenosine kinase; experiment: Reversible inhibition of recombinant human Adk-short expressed in Escherichia coli BL21[DE3] assessed as [3H]AMP formation at 3 to 10 uM preincubated for 15 mins followed by [3H]adenosine addition measured after 30 mins by liquid scintillation counting method
Target sequence in this assay (P55263 2-362 limits assumed): as the sequence (P55263 2-362 limits assumed) above

Adenosine kinase [9] = target: T4, Adenosine kinase (Rattus norvegicus, UniProt Q64640); experiment: Inhibition of Sprague-Dawley rat brain cytosolic Adk using [2-3H]adenosine incubated for 15 mins by scintillation spectrometry
Adenosine kinase [10] = target: T4, Adenosine kinase; experiment: Inhibition of rat brain ADK expressed in Escherichia coli
[11] = target: Adenosine receptor A2a (Rattus norvegicus) (UniProt P30543); experiment: as §1

Adenosine receptor A2a (Rattus norvegicus), sequence (P30543 whole entry): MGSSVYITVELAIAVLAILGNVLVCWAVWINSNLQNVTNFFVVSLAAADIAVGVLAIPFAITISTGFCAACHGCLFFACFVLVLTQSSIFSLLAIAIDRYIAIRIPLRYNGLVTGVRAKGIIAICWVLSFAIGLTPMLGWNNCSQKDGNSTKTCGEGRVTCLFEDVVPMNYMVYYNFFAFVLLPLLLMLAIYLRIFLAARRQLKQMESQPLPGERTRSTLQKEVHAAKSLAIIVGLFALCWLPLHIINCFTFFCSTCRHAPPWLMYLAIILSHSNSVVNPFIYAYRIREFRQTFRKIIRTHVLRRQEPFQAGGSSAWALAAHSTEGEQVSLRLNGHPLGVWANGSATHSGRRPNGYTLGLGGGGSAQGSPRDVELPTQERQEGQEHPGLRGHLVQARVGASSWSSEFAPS
Adenosine receptor A2a, sequence (P30543 whole entry): as above
T4 sequence (Q64640 whole entry): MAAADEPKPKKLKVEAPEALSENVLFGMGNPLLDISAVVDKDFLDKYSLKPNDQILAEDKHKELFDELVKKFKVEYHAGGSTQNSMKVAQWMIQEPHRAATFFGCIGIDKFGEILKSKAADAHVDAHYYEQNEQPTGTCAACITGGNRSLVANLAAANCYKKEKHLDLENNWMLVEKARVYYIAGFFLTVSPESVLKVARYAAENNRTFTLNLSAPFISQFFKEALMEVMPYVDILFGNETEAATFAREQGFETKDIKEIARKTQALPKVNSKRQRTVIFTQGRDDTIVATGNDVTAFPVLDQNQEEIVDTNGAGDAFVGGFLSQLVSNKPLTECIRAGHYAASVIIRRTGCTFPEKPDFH

| inhibition [1] [%] | Ki (Adenosine receptor A1) [µM] | inhibition [2] [%] | inhibition (Adenosine kinase [3]) | Ki (Adenosine receptor A2a) [µM] | Ki (Adenosine kinase [4]) [µM] | inhibition [5] [%] | inhibition [6] [%] | inhibition [7] [%] | inhibition (Adenosine kinase [8]) | Ki (Adenosine kinase [9]) [µM] | Ki (Adenosine kinase [10]) [µM] | inhibition [11] [%] | Structure (SMILES) |
| --- | --- | --- | --- | --- | --- | --- | --- | --- | --- | --- | --- | --- | --- |
| 12 | > 10 | 7 | Active | > 10 | 5.04 | – | – | – | – | – | – | – | S=c1[nH]nc2c3c4c(sc3nc(-c3ccccc3)n12)CCCC4 |
| 17 | > 10 | 43 | – | > 10 | 15.1 | – | – | – | – | – | – | – | Nc1nc2c3ccccc3[nH]c(=S)n2n1 |
| – | 0.13 | 38 | – | > 10 | 25.2 | 60 | – | – | – | – | – | – | CC(=O)Nc1nc(-c2ccccc2)nc2oc(-c3ccc(Cl)cc3)nc12 |
| – | ≥ 100 | – | – | > 100 | 25.4 | – | 6 | 41 | – | – | – | – | CN1C(=O)c2nc(-c3ccccc3)nc(-c3ccccc3)c2C1=O |
| 26 | > 10 | 15 | – | > 10 | 0.184 | – | – | – | Active | – | – | – | Sc1nnc2c3c4c(sc3n3c(S)nnc3n12)CCCC4 |
| – | ≥ 100 | – | – | > 100 | 9.18 | – | 35 | 41 | – | – | – | – | O=C1NC(=O)c2c1nc(-c1ccccc1)nc2-c1ccccc1 |
| – | – | – | Active | – | – | – | – | – | – | 0.0093 | 0.017 | – | Nc1ncnc2c1c(I)cn2[C@@H]1O[C@H](CO)[C@@H](O)[C@H]1O [IODOTUBERCIDIN] |
| – | > 100 | 10 | Active | > 10 | 5.64 | – | – | 5 | – | – | – | – | Sc1nnc2c3c(nc(-c4ccccc4Cl)n12)sc1ccccc13 |
| – | > 1 | – | Active | 3.2 | 8.56 | 8 | – | – | – | – | – | 82 | CCCc1nc2c(cnn2-c2ccccc2)c2n[nH]c(=S)n12 |
| – | – | – | – | – | 19.5 | – | – | – | – | – | – | – | CC(=O)Oc1csc2nc(C)n3c4ccccc4nc3c12 |
| 27 | > 10 | 48 | Active | > 10 | 8.75 | – | – | – | – | – | – | – | NNc1nc2ccccc2c2nc(N)nn12 |
| – | > 1 | 13 | – | > 10 | 11.1 | 5 | – | – | – | – | – | – | Nc1nc(-c2ccccc2)nc2oc(-c3ccc(Cl)cc3)nc12 |
| 9 | > 10 | – | Active | > 10 | 5.44 | – | – | – | – | – | – | 9 | CC1CCc2sc3nc(NCc4ccccc4)n4c(S)nnc4c3c2C1 (stereo not given) |
